Laboratory results: patent US10793568B2, “Hormone receptor modulators for treating metabolic conditions and disorders” (ARDELYX, INC., priority 2016, dated 2020)

How the values were obtained:
[1] = target: human Farnesoid X receptor ligand-binding domain/Gal4 DNA binding domain chimera (Homo sapiens (Human), UniProt Q96RI1); assay: Cell-based assay of FXR activation (FXR-UAS-bla HEK 293T beta-lactamase reporter); settings: cellular FXR beta-lactamase reporter assay; for Emax: HEK-293T, extent of activation relative to GW4064, read-out: % Efficacy; for EC50: FXR-UAS-bla HEK 293T cells, 16 h, pEC50 = -log EC50
Procedure, shortened: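 HEK 293T cells stably expressing a Gal4-fused human FXR LBD and a UAS-driven beta-lactamase reporter were incubated with serially diluted compounds for 16 h at 37 °C in phenol red-free DMEM with 2% charcoal-stripped FBS. CCF4 FRET read-out: excitation 409 nm, emission 447 nm. pEC50 comes from a 3-parameter logistic fit, and efficacy is given as % of GW4064.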

[2] = target: ligand binding domain of human FXR (Homo sapiens (Human), UniProt Q96RI1); assay: FXR ligand binding assay (LanthaScreen TR-FRET, SRC2-2 peptide recruitment); settings: for pEC50: -log EC50, concentration required to produce 50% activation; for Emax: extent of activation relative to GW4064, read-out: % Efficacy
DSS colitis mice = assay: Restoration of epithelial barrier integrity in DSS colitis; format: in vivo, C57Bl/6 mice; settings: 30 mg/kg once daily oral gavage
Protocol: Colonic histopathology was assessed in mice administered dextran sodium sulfate (DSS) to assess the ability of selected example compounds to restore epithelial barrier integrity in a model of colitis presenting with epithelial erosions. Approximately seven-week old, female, C57Bl/6 mice were purchased from Envigo (Livermore, Calif.), were housed 6 per cage and acclimated for at least 2 weeks before study initiation. Animals were fed standard laboratory rodent chow Harlan Teklad Global 2018 (Maddison, Wis.). Mice had ad libitum access to food and water for the duration of the study and were maintained in a temperature and humidity controlled room on a standard light/dark cycle of 6 AM to 6 PM. DSS was prepared at 1.5% (MW 35-50 kDa, Lot # M7191, MP Biomedical) in filtered drinking water and provided to the mice from Day 0 to Day 7 (n=12/group). The DSS water was replaced once during the study on Day 3 or 4 with fresh DSS water. One cohort of mice (n=6) was provided drinking water without DSS and severed as the non-diseased control group. Vehicle (1% methylcellulose in water, 10 mL/kg) or varying doses of test compound were administered once daily by oral gavage beginning on Day −3 through Day 8. FXR agonist compounds of the invention, FXR1 and FXR2, were tested at doses of 0.3 and 1 mg/kg and compared to known FXR agonist obeticholic acid (OCA) administered at 30 mg/kg. Body weight and food and water intake were measured daily from the initiation of DSS administration. Disease activity index (DAI) scoring was performed on Day 9 prior to necropsy. Stool consistency, blood in stool, incidence of rectal prolapse, and body condition was assessed according to the scoring system in Table 25 and summed to a total DAI score:
Following DAI scoring on Day 9 and under isoflurane anesthesia mice were exsanguinated via cardiac puncture and euthanized by thoracotomy, followed by cervical dislocation. The entire colon (from the cecum to the anus) was removed, and the length recorded. The luminal contents were removed by flushing with ice-cold PBS using a blunt needle attached to a syringe and the colon was blotted dry and weighed. For each treatment group, half of the distal colon samples were prepared for cytokine analysis and half were prepared for histological evaluation. For cytokine measurement, the distal ⅓ of the colon was excised and weighed, placed into 5 mL Eppendorf tubes, frozen on dry ice and stored at −80° C., until analysis. Inflammatory cytokines were measured in colon tissue using a V-Plex custom kit (Proinflammatory Panel 1 (mouse), Mesoscale Technology). For histology, the colon was rolled by grasping the distal end and rotating to generate a spiral with a third dimension. The colon was then placed in a tissue cassette, and into a jar of 10/o buffered formalin phosphate at room temperature for at least 24 hours to ensure tissue fixation, at which point the formalin was replaced with 70% ethanol. […] Three levels of the distal colon were assigned a colitis score and the average colitis score for each animal was derived by summing the colitis scores for the three levels of colon evaluated and dividing the sum by three. The average colitis score for each treatment group was derived by summing the colitis scores for all levels of colon evaluated in the group and dividing the sum by the total number of levels of colon evaluated for that group. The presence or absence of mucosal defects (erosions or ulcerations) was also recorded for each level of colon. […]

human Farnesoid X receptor ligand-binding domain/Gal4 DNA binding domain chimera, sequence (Q96RI1 262-486, change not shown): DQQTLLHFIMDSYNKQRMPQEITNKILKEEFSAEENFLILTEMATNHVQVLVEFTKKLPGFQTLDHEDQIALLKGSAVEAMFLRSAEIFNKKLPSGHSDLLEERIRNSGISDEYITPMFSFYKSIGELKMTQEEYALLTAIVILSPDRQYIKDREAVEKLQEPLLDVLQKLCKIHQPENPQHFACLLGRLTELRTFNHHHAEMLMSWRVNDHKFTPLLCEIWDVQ
human Farnesoid X receptor ligand-binding domain/Gal4 DNA binding domain chimera, sequence (P04386 1-147 partner): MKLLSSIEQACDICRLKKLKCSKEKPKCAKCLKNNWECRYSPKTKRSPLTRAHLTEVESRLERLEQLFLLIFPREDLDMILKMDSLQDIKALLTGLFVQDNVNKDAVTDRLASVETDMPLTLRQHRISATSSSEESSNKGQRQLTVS
ligand binding domain of human FXR, sequence (Q96RI1 262-486): as the sequence (Q96RI1 262-486, change not shown) above

SMILES	Emax [1]	EC50 [1]	pEC50 [2]	Emax [2]	DAI score (DSS colitis mice; Day 9, vs DSS vehicle)	body weight (DSS-induced reduction) (DSS colitis mice; vs DSS vehicle)	epithelial erosions (mucosal defects) observed histologically (DSS colitis mice; vs DSS vehicle)	histology colitis score (DSS colitis mice; vs DSS vehicle)	inflammatory cytokines IL-6, IL-1β, TNFα, IFNγ and KC/Gro in the colon (DSS colitis mice; vs DSS vehicle)
O=C(NS(=O)(=O)CC1CCOCC1)c1ccc(N2C(=O)[C@@H]3C[C@H]2C[C@H]3OCc2c(-c3c(Cl)cccc3Cl)noc2C2CC2)cc1 [Compound I-339, 4-((1S,4R,5R)-5-((5-cyclopropyl-3-(2,6-dichlorophenyl)isoxazol-4-yl)methoxy)-3-oxo-2-azabicyclo[2.2.1]heptan-2-yl)-N-(((tetrahydro-2H-pyran-4-yl)methyl)sulfonyl)benzamide]	118%	5.01 nM	8.6	198%					
O=C(NS(=O)(=O)C1CCOC1)c1ccc(N2C(=O)[C@@H]3C[C@H]2C[C@H]3OCc2c(-c3c(Cl)cccc3Cl)noc2C2CC2)cc1 (stereo partly drawn) [Compound I-340, 4-((1S,4R,5R)-5-((5-cyclopropyl-3-(2,6-dichlorophenyl)isoxazol-4-yl)methoxy)-3-oxo-2-azabicyclo[2.2.1]heptan-2-yl)-N-((tetrahydrofuran-3-yl)sulfonyl)benzamide]	110%	7.94 nM	8.8	182%					
O=C(NS(=O)(=O)CC1CCOC1)c1ccc(N2C(=O)[C@@H]3C[C@H]2C[C@H]3OCc2c(-c3c(Cl)cccc3Cl)noc2C2CC2)cc1 (stereo partly drawn) [Compound I-341, 4-((1S,4R,5R)-5-((5-cyclopropyl-3-(2,6-dichlorophenyl)isoxazol-4-yl)methoxy)-3-oxo-2-azabicyclo[2.2.1]heptan-2-yl)-N-(((tetrahydrofuran-3-yl)methyl)sulfonyl)benzamide]	109%	10 nM	8.7	164%					
O=C(NS(=O)(=O)CCC1CCOC1)c1ccc(N2C(=O)[C@@H]3C[C@H]2C[C@H]3OCc2c(-c3c(Cl)cccc3Cl)noc2C2CC2)cc1 (stereo partly drawn) [Compound I-342, 4-((1S,4R,5R)-5-((5-cyclopropyl-3-(2,6-dichlorophenyl)isoxazol-4-yl)methoxy)-3-oxo-2-azabicyclo[2.2.1]heptan-2-yl)-N-((2-(tetrahydrofuran-3-yl)ethyl)sulfonyl)benzamide]	125%	31.6 nM	8.6	139%					
O=C(NS(=O)(=O)C1CCCC1)c1ccc(N2C(=O)[C@@H]3C[C@H]2C[C@H]3OCc2c(-c3c(Cl)cccc3Cl)noc2C2CC2)cc1 [Compound I-343, N-(cyclopentylsulfonyl)-4-((1S,4R,5R)-5-((5-cyclopropyl-3-(2,6-dichlorophenyl)isoxazol-4-yl)methoxy)-3-oxo-2-azabicyclo[2.2.1]heptan-2-yl)benzamide]	105%	0.1 nM	9	176%					
O=C(NS(=O)(=O)[C@@H]1CCC[C@H]1O)c1ccc(N2C(=O)[C@@H]3C[C@H]2C[C@H]3OCc2c(-c3c(Cl)cccc3Cl)noc2C2CC2)cc1 [Compound I-344, 4-[(1S,4R,5R)-5-{[5-cyclopropyl-3-(2,6-dichlorophenyl)-1,2-oxazol-4-yl]methoxy}-3-oxo-2-azabicyclo[2.2.1]heptan-2-yl]-N-{[(1R,2R)-2-hydroxycyclopentyl]sulfonyl}benzamide]	132%	1.58 nM	8.4	203%					
NS(=O)(=O)[C@@H]1CCC[C@H]1OC(=O)c1ccc(N2C(=O)[C@@H]3C[C@H]2C[C@H]3OCc2c(-c3c(Cl)cccc3Cl)noc2C2CC2)cc1 [Compound I-345, (1R,2R)-2-sulfamoylcyclopentyl 4-[(1S,4R,5R)-5-{[5-cyclopropyl-3-(2,6-dichlorophenyl)-1,2-oxazol-4-yl]methoxy}-3-oxo-2-azabicyclo[2.2.1]heptan-2-yl]benzoate]	121%	3.98 nM	8.6	203%					
O=C(NS(=O)(=O)[C@@H]1CCC[C@H]1O)c1ccc(N2C(=O)[C@@H]3C[C@H]2C[C@H]3OCc2c(-c3c(Cl)cccc3Cl)noc2C2CC2)cc1F [Compound I-346, 4-[(1S,4R,5R)-5-{[5-cyclopropyl-3-(2,6-dichlorophenyl)-1,2-oxazol-4-yl]methoxy}-3-oxo-2-azabicyclo[2.2.1]heptan-2-yl]-2-fluoro-N-{[(1R,2R)-2-hydroxycyclopentyl]sulfonyl}benzamide]	133%	0.794 nM	8.2	188%					
NS(=O)(=O)[C@@H]1CCC[C@H]1OC(=O)c1ccc(N2C(=O)[C@@H]3C[C@H]2C[C@H]3OCc2c(-c3c(Cl)cccc3Cl)noc2C2CC2)cc1F [Compound I-347, (1R,2R)-2-sulfamoylcyclopentyl 4-[(1S,4R,5R)-5-{[5-cyclopropyl-3-(2,6-dichlorophenyl)-1,2-oxazol-4-yl]methoxy}-3-oxo-2-azabicyclo[2.2.1]heptan-2-yl]-2-fluorobenzoate]	135%	1 nM	8.5	203%					
O=C(O)CNC(=O)c1ccc(N2C(=O)[C@@H]3C[C@H]2C[C@H]3OCc2c(-c3c(Cl)cccc3Cl)noc2C2CC2)cc1 [Compound I-358, 2-({4-[(1S,4R,5R)-5-{[5-cyclopropyl-3-(2,6-dichlorophenyl)-1,2-oxazol-4-yl]methoxy}-3-oxo-2-azabicyclo[2.2.1]heptan-2-yl]phenyl}formamido)acetic Acid]	124%	631 nM	8	155%					
O=C(NCCS(=O)(=O)O)c1ccc(N2C(=O)[C@@H]3C[C@H]2C[C@H]3OCc2c(-c3c(Cl)cccc3Cl)noc2C2CC2)cc1 [Compound I-359, 2-({4-[(1S,4R,5R)-5-{[5-cyclopropyl-3-(2,6-dichlorophenyl)-1,2-oxazol-4-yl]methoxy}-3-oxo-2-azabicyclo[2.2.1]heptan-2-yl]phenyl}formamido)ethane-1-sulfonic Acid]	126%	398 nM	8.4	148%					
C[C@@H]1[C@@H]2C[C@@H](C[C@H]2OCc2c(-c3c(Cl)cccc3Cl)noc2C2CC2)N1c1ccc(C(=O)O)cc1 [Compound I-360, 4-[(1S,3R,4S,5R)-5-[[5-cyclopropyl-3-(2,6-dichlorophenyl)-1,2-oxazol-4-yl]methoxy]-3-methyl-2-azabicyclo[2.2.1]heptan-2-yl]benzoic acid]	102%	0.794 nM	8.6	117%					
CC[C@H]1[C@@H](O)[C@@H]2[C@H](CC[C@]3(C)[C@@H]([C@H](C)CCC(=O)O)CC[C@@H]23)[C@@]2(C)CC[C@@H](O)C[C@@H]12 [OCA, obeticholic acid]					did not significantly affect body weight nor DAI score	did not significantly affect body weight	did not reduce the number of epithelial erosions	did not significantly affect histology colitis score	only significantly reduced the levels of IL-1β, TNFα and KC/Gro
